These results are taken from paper PMC12811996, “Exploration and Characterization of the Antimalarial Activity of Pyrimidine‐2,4‐Diamines for which Resistance is Mediated by the ABCI3 Transporter” (Chemmedchem, 2025).

Where two headings read alike, the source gives them in different places. A value given as a limit tells only on which side of the number the result lay.

Data set [1] concerns Plasmodium falciparum strain 3D7A. Put plainly: Parasite reduction ratio assay. The class given is cell-based. The conditions noted are these: for asexual speed-of-kill profile: 10 × EC50, 24 and 48 h treatment, P. falciparum 3D7. From the text:
(§1) Figure 5 a) Stage of arrest assay showing that W482 (1) blocks ring‐trophozoite transition in the asexual stage of P. falciparum. […] Replicates of Giemsa‐stained blood smears can be found in Figure S4 (Supporting Information). c) Parasite reduction ratio assay conducted at 10 × EC50 of W482 (1). Data represent means and SD of P. falciparum 3D7 parasite survival measuring 3 independent replicates by two‐color flow cytometry using CFDA‐SE and Hoescht 33,342 staining.
Samples of parasites were collected at 24‐ and 48‐hour timepoints, whereby the compound was washed out and fresh erythrocytes pre‐labeled with intracellular dye were added. Samples were then incubated for 18 days, and then the number of viable parasites was quantified by flow cytometry (Figure 5c).
This assay was conducted following a previously described protocol using the Plasmodium falciparum strain 3D7A, MRA‐151.^[ [19] ^, [28] ^] The human biological samples used in the study were sourced ethically, and their research use was conducted in accordance with the terms of informed consent under an IRB/EC‐approved protocol.

In data set [2] the test system is P. falciparum 3D7 parasites. Put plainly: P. falciparum 3D7 asexual stage parasite LDH assay, 72 h. It counts as cell-based, Plasmodium falciparum. Here is the method: (§2) To establish the SAR, the antiparasitic activity of the analogs was determined using an assay that measures the lactate dehydrogenase (LDH) activity of asexual P. falciparum 3D7 parasites after 72 h of compound treatment. Mammalian cytotoxicity was monitored using an assay that measures the growth of HepG2 cells using Cell Titer‐Glo after 48 h of compound treatment.
This was performed as previously described, whereby lactate dehydrogenase (LDH) was used as a metabolic marker for parasite growth after a 72‐h incubation period.^[ [14] ^, [30] ^]

Data set [3] in a line: in vitro. It counts as cell-based. The conditions noted are these: human; HepG2 viability over 48 h, Cell Titer-Glo; means and SDs, 3 experiments; read-out: HepG2 CC50 (SD). Here is the method:
as §2
This was performed as previously described.^[ [14] ^, [31] ^]

Data set [4] concerns early stage (I–III) gametocytes. The conditions noted are these: at 2.5 µM; cited from earlier work.
Data set [5] concerns late stage (IV‐V) gametocytes. The conditions noted are these: at 5 µM; cited from earlier work.
The subject of data set [6] is P. berghei liver stage. The conditions noted are these: at 50 µM; cited from earlier work.
Data set [7] in a line: physchem. It counts as physicochemical. The conditions noted are these: kinetic in PBS, pH 7.4; read-out: Aqueous solubility pH 7.4. Here is the method:
(§3) The aqueous solubility and in vitro metabolic stability of selected analogs were assessed to determine if they had favorable parameters (Table 9 ).These analogs were selected based on their potency and the modifications that were incorporated, which led to compounds 55 and 56. […] The high lipophilicity of analogs 1, 11, and 16 was not favorable for metabolic stability.
(§4) This was performed as previously described.^[ [14] ^, [16] ^]

Data set [8] can be described thus: in vitro. The class given is in vitro ADME. Here is the method: as §3, §4
A short description of data set [9]: physchem. The conditions noted are these: shake-flask method; listed as 1. The class given is physicochemical. Here is the method: as §4
Data set [10] concerns the target Albumax (Bos taurus, UniProt P02769). Put plainly: in vitro. It counts as in vitro ADME.
The subject of data set [11] is W482-resistant P. falciparum 3D7 populations. The data set can be described thus: 72 h Pf LDH assay against W482-selected populations. The conditions noted are these: for EC50: 72 h Pf LDH assay. The class given is cell-based, Plasmodium falciparum. Here is the method:
To identify the mechanism by which the pyrimidine‐2,4‐diamine class kills the P. falciparum parasite, a forward genetic study was performed on the hit compound W482 (1). We selected W482 (1) as the representative compound from this class, as the forward genetics and phenotype assays were performed in parallel to the medicinal chemistry described in the prior section. […] Genomic DNA was then prepared from these two resistant populations and the parental 3D7 strain and whole genome sequenced.
Figure 3 The activity of W482 (1) against W482‐selected populations and their 3D7 parental. The data are mean and SD from 3 independent 72 h Pf LDH assays.
This was performed as previously described.^[ [14] ^] Briefly, 3D7 wildtype parasites initially exposed to 2 × EC50 (0.3 µM) of W482 (1) and incremental increases in EC50 were applied until 10 × EC50 was reached. The resistant populations were not cloned for whole‐genome sequencing.

The test system of data set [12] is PfABCI3-HAreg parasites. Put plainly: Parasite proliferation assay with PfABCI3-HAreg parasites (SYBR Safe, 72 h). The conditions noted are these: mean ± SEM, n = 4; for IC50: 72 h. It counts as cell-based, Plasmodium falciparum. Here is the method: Glucosamine (GlcN) (5 mM) was used to reduce the level of pfabci3‐ha. Chloroquine and MMV020746 were used as negative and positive controls, respectively.
Figure 4 Sensitivity of PfABCI3‐HAreg parasites to growth inhibition by chloroquine (a), MMV020746 (b), and W482 (1) (c). Data for parasites in which pfabci3‐ha mRNA was reduced (+ GlcN) are shown in red. GlcN (5 mM) was added to the parasites 48 h prior to the assay and maintained throughout the 72 h assay. The data for parasites expressing a normal level of PfABCI3‐HA (‐GlcN) are shown in black. The data in all panels are from four independent experiments performed on different days. […] Parasites that were treated with or without GlcN (5 mM) were tested concurrently in each assay. TEXT PRINTED IN THE PICTURE: chloroquine: IC50 ± SEM (nM) - GlcN: 12.6 ± 1.1; IC50 ± SEM (nM) + GlcN: 11.9 ± 1.5 | MMV020746: IC50 ± SEM (nM) - GlcN: 104 ± 13; IC50 ± SEM (nM) + GlcN: 32.9 ± 3.9 | W482 (1): IC50 ± SEM (nM) - GlcN: 312 ± 28; IC50 ± SEM (nM) + GlcN: 153 ± 12
Parasite proliferation assays were performed with PfABCI3‐HAreg parasites^[ [19] ^] according to a previously described method, with the fluorescent nucleic acid intercalating dye SYBR Safe used to measure parasite viability.^[ [32] ^, [33] ^] The assays were commenced with cultures consisting of predominantly ring‐stage parasites with a starting hematocrit of 1% and parasitemia of 1%. […] It was shown previously that there is a reduction in pfabci3‐ha mRNA in PfABCI3‐HAreg exposed to 5 mM GlcN and a decrease in parasite viability over time.^[ [19] ^] The level of knockdown of the protein is not known.

Data set [13] relates to P. falciparum 3D7 parasites. The data set can be described thus: Stage of asexual arrest assay. It counts as cell-based, Plasmodium falciparum. Here is the method:
The asexual stage of arrest and parasite reduction ratio (PRR) assays were undertaken on W482 (1) to assess the speed‐of‐asexual kill and the alignment of the pyrimidine‐2,4‐diamine class with the Target Candidate Profiles (TCPs).^[ [27] ^] […] Parasite samples were collected from the culture at 12, 24, 36, 48, and 60 h, and microscopy was performed on Giemsa‐stained thin blood‐smeared samples. These samples were also quantified with flow cytometry using SYBR Green.
as §1

In data set [14] the test system is P. falciparum 3D7 parasites. The conditions noted are these: asexual P. falciparum 3D7; hits from GSK TCAMS screen / MMV Malaria Box; cited from earlier work.
In data set [15] the test system is hemoglobin catabolism. More on the design: method as in PMID 27572391. The conditions noted are these: previous metabolomic profiling; cited from earlier work.
The mark [16] stands for this setting: Plasmodium falciparum, 3D7, 72 h, P. falciparum 3D7, LDH activity, 72 h exposure, means and SDs, 3 or more experiments, read-out: Pf parasite EC50 (SD).

Sequence of Albumax (P02769 25-607): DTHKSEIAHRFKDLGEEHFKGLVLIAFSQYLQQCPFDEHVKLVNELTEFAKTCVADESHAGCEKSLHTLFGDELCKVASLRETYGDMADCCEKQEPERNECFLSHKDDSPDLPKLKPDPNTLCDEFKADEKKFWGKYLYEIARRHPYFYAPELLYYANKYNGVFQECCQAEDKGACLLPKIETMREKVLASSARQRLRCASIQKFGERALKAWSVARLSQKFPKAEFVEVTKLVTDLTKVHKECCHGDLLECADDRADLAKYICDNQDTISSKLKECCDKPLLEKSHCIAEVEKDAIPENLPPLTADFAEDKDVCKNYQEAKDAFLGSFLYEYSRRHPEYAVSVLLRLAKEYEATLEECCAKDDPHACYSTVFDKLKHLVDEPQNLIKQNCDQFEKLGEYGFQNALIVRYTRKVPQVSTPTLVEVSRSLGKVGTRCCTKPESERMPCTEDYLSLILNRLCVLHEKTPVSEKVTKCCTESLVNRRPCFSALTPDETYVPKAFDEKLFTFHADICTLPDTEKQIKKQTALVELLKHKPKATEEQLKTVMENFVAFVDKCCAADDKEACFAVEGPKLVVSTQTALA

For the compound `CCc1nc(N)nc(N)c1-c1ccc(Cl)cc1` [Pyrimethamine, reference compound], the asexual speed-of-kill profile result in data set [1] is reported as “moderate killing rate”.

Consider `CN(C)c1cc(Nc2ccc(NC(=O)CCC3CCCCC3)cc2)nc2ccccc12` [Compound 22, 3‐Cyclohexyl‐N‐(4‐((4‐(dimethylamino)quinolin‐2‐yl)amino)phenyl)propanamide], for which, in data set [2] (setting [16]), the EC50 – broadly, the concentration at which the effect is half-maximal – was 2.47 µM. The CC50 (as a rule, the concentration that lowers cell viability or growth by half) in data set [3] is 15.9 µM.

For the compound `Cc1cc(N(C)C)nc(Nc2ccc(NC(=O)Nc3ccccc3)cc2)n1` [MMV020243 (2)], the “inhibition of early stage (I–III) gametocytes” value in data set [4] was 67%. The “inhibition of late stage (IV‐V) gametocytes” value in data set [5] is 2%. In [6], the “inhibition of P. berghei liver stage development” value is given as 2%.

Take `CCN(CC)c1cc(C)nc(Nc2ccc(NC(=O)CCC3CCCCC3)cc2)n1` [Compound 4]: in data set [2] (setting [16]), the EC50 is 0.52 µM. In addition, the CC50 in data set [3] worked out at 18 µM.

With “3‐Cyclohexyl‐N‐(4‐((4‐(dimethylamino)‐6‐methylpyrimidin‐2‐yl)amino)phenyl)propenamide [W482 (1)]”, the EC50 in [2] (parental 3D7 in resistance selection study, 72 h Pf LDH assay, 3 independent assays, read-out: EC50 against parental 3D7) was 0.197 µM; in data set [11] (population #1, read-out: EC50 against W482-selected population #1) it was 0.396 µM; in [11] (population #2, read-out: EC50 against W482-selected population #2), 0.407 µM. In [7], the solubility – broadly, the concentration that dissolves in the medium under given conditions – is 3.8 µM. Besides, the “Human liver microsomes CLint” value in data set [8] is reported as 174 µL/min/mg; in data set [8] (listed as 1), above 117 µL/min/mg. The “Rat hepatocytes CLint” value in data set [8] is reported as above 92 µL/min/10^6 cells. In data set [9], the eLogD was 4.6–5.0. Also, the “Albumax binding % bound” value in data set [10] came to 99.1%. In addition, in data set [11] (two recovered populations vs parental 3D7), the “fold decreased activity of resistant populations compared to parental 3D7” value was 2 fold. The IC50 – broadly, the concentration that inhibits the measured activity by half – turned out to be 0.312 ± 0.028 µM in data set [12] (PfABCI3-HAreg parasites expressing normal level of PfABCI3-HA (-GlcN)) and 0.153 ± 0.012 µM in [12] (PfABCI3-HAreg parasites with reduced pfabci3-ha mRNA (+ 5 mM GlcN)). The “fold lower IC50 for +GlcN parasites than -GlcN parasites” value in data set [12] amounted to 2.0 ± 0.1 fold. Moreover, the “asexual stage of arrest” value in data set [13] (10 × EC50 (1.4 µM) for 60 h, Giemsa-stained smears) is given as “ring to trophozoite transition stage”. For the same compound, in data set [13] (10 × EC50 (1.4 µM), SYBR Green flow cytometry), the “percentage of parasitemia over time” value is given as “declines after 36 h”. Moreover, the asexual speed-of-kill profile result in data set [1] is “fast killing profile”. In addition, the lag phase in [1] (parasite killing profile) came out at 24 h.

Turning to `Cc1cc(N2CCCC2)nc(Nc2ccc(NC(=O)CCC3CCCCC3)cc2)n1` [Compound 7, 3‐Cyclohexyl‐N‐(4‐((4‐methyl‐6‐(pyrrolidin‐1‐yl)pyrimidin‐2‐yl)amino)phenyl)propanamide], the EC50 in data set [2] (setting [16]) amounted to 0.54 µM. For the same compound, in data set [3], the CC50 came out at 12.6 µM.

As to `Cc1cc(N2CCCC2)nc(Nc2ccc(NC(=O)CCc3ccccc3)cc2)n1` [MMV396669 (3)], in data set [14], the EC50 was 1.07 µM. For the same compound, the “inhibition of early stage (I–III) gametocytes” value in data set [4] is given as 79%. Also, the “inhibition of late stage (IV‐V) gametocytes” value in data set [5] is given as 21%. The “inhibition of P. berghei liver stage development” value in data set [6] is 3%. Further, the metabolomic profile result in data set [15] is reported as “peptide signature consistent with hemoglobin catabolism inhibition”.
